The record followed here is a melting point compilation (Tetko et al.).

In general, melting point refers to the temperature of the solid-liquid transition.

Regarding `O=C1CCC(=O)N(c2ccc(C(=O)O)cc2)N1`, the melting point was in the range of 248 to 250 °C.
The value for `CC(=O)CC(=O)Nc1ccc(C)cc1Cl` was 89 to 91 °C.
Consider `Nc1sc2c(c1C(=O)c1cccc(F)c1)CCCC2`, for which the melting point lay in the range of 110 to 114 °C.
`O=Cc1ccc(Cl)c2cccnc12` registered a melting point of 132 to 134 °C.
For `Cn1[nH]c(-c2ccco2)c(-c2ccc3c(c2)OCO3)c1=N`, the melting point lay in the range of 140 to 142 °C.
The value for `Nc1nc2c(F)c(Cl)ccc2s1` was 80 to 82 °C; that for `NC(=O)c1ccc(NCC(=O)O)cc1` was 271 to 273 °C; that for `O=C(O)c1noc(-c2cccc(F)c2F)n1` was 113 to 115 °C.
Regarding `O=c1[nH]c(S)nc2c1cnn2-c1ccccc1`, the melting point fell in the range of 110 to 113 °C.
For `O=C(O)CCCN1C(=O)CCc2ccccc21`, the melting point was 179 to 181 °C.
For `O=S(=O)(Cl)c1cnc(Cl)cc1Cl`, the melting point lay in the range of 79 to 81 °C.
Turning to `CCCc1c(C(=O)O)[nH]c(C)c1C(=O)OC`, the melting point was 215 to 217 °C.
The value for `CC(=O)N(C)c1ccccc1C(=O)O` was 196 to 198 °C; that for `CNc1ccccc1S(C)(=O)=O` was 96 to 98 °C.
Take `NS(=O)(=O)c1ccc(-n2cccn2)c(F)c1`: the melting point lay within 190 to 192 °C.
As to `O=c1c2ccccc2nnn1CCl`, the melting point was 129 to 133 °C.
`CS(=O)(=O)c1cccnc1` yielded a melting point of 54 to 56 °C.
The value for `Nc1nc(-c2cc(Cl)ccc2Cl)cs1` was 161 to 165 °C.
The value for `Cc1cc(=O)c(C(=O)O)nn1-c1ccccc1C(F)(F)F` was 145 to 147 °C; that for `Cn1cccc(C(=O)O)c1=O` was 185 to 187 °C.
On to `COC(=O)c1c(C)n(C2CC2)c2ccc(O)cc12`, for which the melting point is 193 to 195 °C.
In the case of `CCN(CC)c1ccc(-c2nnc(S)o2)cc1`, the melting point lay within 163 to 165 °C.
For the compound `COc1ccc(Cn2cc(C(=O)O)cn2)cc1`, the melting point fell in the range of 132 to 134 °C.
`CCOC(=O)c1cnn(CCC#N)c1` showed a melting point of 87 to 89 °C.
As to `O=C(O)c1cc2c(F)cccc2[nH]1`, the melting point lay in the range of 209 to 211 °C.
`CC(C(=O)O)c1cc2ccccc2o1` (configuration not stated) yielded a melting point of 91 to 93 °C.
Consider `OCc1cc(Cl)c2nccn2c1`, for which the melting point lay in the range of 169 to 171 °C.
`Cc1ccc(NC(=O)C(Cl)c2ccccc2)cc1` (configuration not stated) registered a melting point of 143 to 147 °C.
`Nc1ccccc1OCCN1CC(=O)Nc2ccccc21` returned a melting point of 147 to 149 °C.
`O=C1NCCNC1c1cccs1` (configuration not stated): the melting point lay within 111 to 113 °C.
`NS(=O)(=O)c1ccc(S(=O)(=O)Cl)c(F)c1`: the melting point lay in the range of 111 to 113 °C.
The value for `CCOC(=O)c1sc2ncc(C#N)cc2c1C` was 181 to 183 °C.
As for `Cc1noc2nc(C3CC3)cc(C(=O)O)c12`, the melting point lay within 215 to 217 °C.
The value for `CC(C)C1CCC2(CC1)NC(=O)NC2=O` (configuration not stated) was 298 to 300 °C; that for `Nc1ccc(C(=O)CCC(=O)O)cc1` was 184 to 186 °C; that for `Clc1cncc(-n2cncn2)n1` was 109 to 111 °C.
The compound `CC(=O)Nc1ccc(S(=O)(=O)N2CCC(=O)CC2)cc1` showed a melting point of 145 to 147 °C.
For `O=C(C1Cc2ccccc2CN1)N1CCCC1` (configuration not stated), the melting point is 88 to 90 °C.
In the case of `CSc1[nH]c(=O)c(C(=O)O)cc1C#N`, the melting point was in the range of 254 to 256 °C.
Consider `CC(C)(C)c1ccc2c(c1)C(O)CC2` (configuration not stated), for which the melting point was 73 to 75 °C.
The value for `Cc1cc(C(=O)O)c(C)nn1` was 132 to 134 °C.
Turning to `O=C(O)CN1CC(=O)NC1=O`, the melting point lay within 139 to 141 °C.
Compound `O=C(O)CCOC1CCOCC1` came in with a melting point of 54 to 56 °C.
The value for `O=C(NC1CC1)c1cc(Cl)nc2ccccc12` was 190 to 193 °C; that for `O=c1c(Cl)c(Cl)cnn1Cc1ccccc1` was 87 to 89 °C; that for `O=C(O)C1(O)CCSC1` (configuration not stated) was 99 to 101 °C.
Consider `NS(=O)(=O)C1CCOC1` (configuration not stated), for which the melting point is 85 to 87 °C.
The value for `O=C(O)CCCc1nc2ccccc2c(=O)[nH]1` was 269 to 271 °C.
Regarding `OCc1noc(-c2ccccc2)n1`, the melting point fell in the range of 80 to 82 °C.
The value for `CCc1[nH]ncc1C(=O)O` was 229 to 231 °C; that for `Nc1nonc1-c1ccc(Cl)c(Cl)c1` was 143 to 145 °C.
In turn, `COC(=O)CC1c2ccccc2CCN1S(C)(=O)=O` (configuration not stated) came in with a melting point of 103 to 105 °C.
Consider `O=C(O)C(Oc1ccc(Br)cc1Br)c1ccccc1` (configuration not stated), for which the melting point is 129 to 131 °C.
For the compound `CCOC(=O)c1sc2nc(CCl)nc(Cl)c2c1C`, the melting point lay within 168 to 170 °C.
Consider `Oc1ccc(Sc2ccnc3cc(Cl)ccc23)cc1`, for which the melting point lay within 231 to 233 °C.
As to `Cc1cc(S(=O)(=O)Cl)ccc1F`, the melting point was 36 to 38 °C.
The value for `N#Cc1cccc(S(=O)(=O)Nc2cn[nH]c2)c1` was 162 to 164 °C; that for `N#Cc1c(Cl)nc2sccn12` was 174 to 176 °C.
Regarding `NCc1ccnc(NC2CC2)c1`, the melting point fell in the range of 39 to 41 °C.
The value for `NC(=O)CC1CCCCN1` (configuration not stated) was 108 to 110 °C.
The value for `O=C(CCCl)Nc1ccc(N2CCCC2=O)cc1` was 194 to 196 °C; that for `O=C(Nc1ccc(C(=O)O)c(O)c1)c1cc(Cl)cc(Cl)c1` was 268 to 270 °C; that for `N#CC1(C(=O)O)CCc2ccccc2C1` (configuration not stated) was 123 to 125 °C.
The value for `NS(=O)(=O)CC1CCOCC1` was 85 to 87 °C.
`Nc1nc(-c2c(F)cccc2F)cs1` came in with a melting point of 179 to 181 °C.
The value for `Cc1nnc(Sc2ccc(N)c(C)c2)s1` was 142 to 144 °C; that for `Clc1nc(-c2cccnc2)nc2scc(-c3ccccc3)c12` was 155 to 157 °C.
With `CCOc1ccc(N)cc1CN1CCCC1`, the melting point lay in the range of 58 to 60 °C.
Regarding `COc1ccccc1N1C(=O)C=CC1=O`, the melting point is 90 to 91 °C.
As to `CC(Cl)C(=O)NC1(C#N)CCCCC1` (configuration not stated), the melting point is 100 to 102 °C.
The value for `Cc1ccc(C(N)=S)o1` was 149 to 151 °C; that for `N#CCCN(C(=O)CCl)c1ccc(F)cc1` was 85 to 87 °C.
The value for `CN1CCc2ccc(C(=O)O)cc21` was 165 to 167 °C.
Take `COCCc1noc(-c2cc(Cl)ccc2N)n1`: the melting point is 93 to 95 °C.
The value for `O=C(O)Cn1ccc(=O)c([N+](=O)[O-])c1` was 249 to 251 °C.
The value for `CNC(=O)Nc1ccc(N)cc1` was 147 to 149 °C; that for `CC(C)(C)c1cc(NC(=O)CBr)on1` was 139 to 141 °C.
`Cc1nc(-c2ccc(I)cc2)n[nH]1`: the melting point lay within 197 to 199 °C.
Regarding `COc1ccccc1C(C)=CC(=O)O`, the melting point was 81 to 83 °C.
`Cc1ccc(C)c(C(=O)c2cccc(S(C)(=O)=O)c2)c1` yielded a melting point of 89 to 91 °C.
The value for `Cc1cc(S(=O)(=O)Cl)cc(C)c1F` was 88 to 90 °C; that for `CC1(O)CCc2ccccc2C1` (configuration not stated) was 39 to 41 °C.
The value for `COc1ccc(N)cc1NS(C)(=O)=O` was 125 to 127 °C; that for `Cc1c(S(=O)(=O)Cl)sc2cc(F)ccc12` was 138 to 140 °C; that for `Cc1ccc(-n2cc(C(=O)O)nn2)cc1` was 160 to 162 °C.
Consider `O=C1CN(C2CCCC2)C(=O)N1`, for which the melting point was 148 to 150 °C.
The value for `CC(=O)c1ccc(S(=O)(=O)N2CCCCC2)cc1` was 139 to 142 °C.
As for `CC(=O)Nc1ccc(C2NC(=O)NC2=O)cc1` (configuration not stated), the melting point lay in the range of 314 to 316 °C.
Turning to `Oc1cccc(-n2ccnc2)c1`, the melting point lay in the range of 172 to 174 °C.
The value for `Clc1cn[nH]c1` was 65 to 67 °C.
For the compound `Nc1nonc1-c1ccc(F)cc1`, the melting point fell in the range of 125 to 127 °C.
For `Cc1cccc(C2(C(=O)O)CCCC2)c1`, the melting point was in the range of 156 to 158 °C.
For `Cc1ccc(-n2c(C)cc(CC(=O)O)c2C)cc1`, the melting point was in the range of 50 to 52 °C.
`CC(=O)Nc1cccc(N)c1C` returned a melting point of 142 to 144 °C.
The compound `Nc1ccn(CCN2CCNC2=O)n1` displayed a melting point of 118 to 120 °C.
With `CCCCCCCCCCCCSc1nc2sc3c(c2c(=O)n1-c1ccccc1)CCCC3`, the melting point is 84 to 86 °C.
The value for `Cc1ncsc1C(=O)NN` was 168 to 170 °C; that for `O=C(CCl)N1CCNC1=O` was 195 to 197 °C.
On to `CCOC(=O)C(=O)c1csc(N)n1`, for which the melting point was 78 to 80 °C.
Compound `Fc1ccc(NCc2ccccn2)cc1` yielded a melting point of 71 to 73 °C.
The compound `Cc1nc2ccccn2c1I` yielded a melting point of 123 to 125 °C.
The compound `O=C(O)CCc1nc2ccccc2oc1=O` registered a melting point of 167 to 169 °C.
Compound `O=C(O)c1ccc(-c2ccccc2Cl)o1` gave a melting point of 210 to 212 °C.
For `CC(CCNC(N)=O)c1ccccc1` (configuration not stated), the melting point lay in the range of 77 to 79 °C.
The value for `O=C(Nc1ccc(N2CCOCC2)nc1)OCC(F)(F)F` was 204 to 206 °C; that for `NC1CCS(=O)(=O)c2ccc(Cl)cc21` (configuration not stated) was 57 to 59 °C; that for `O=Cc1cccc2c1OCO2` was 34 to 36 °C.
`O=Cc1ccc(OCc2cccnc2)cc1` came in with a melting point of 75 to 77 °C.
In turn, `Nc1ccc(-n2cncn2)c(Cl)c1` came in with a melting point of 131 to 133 °C.
For `COC(=O)Cn1cnc2cc(F)ccc2c1=O`, the melting point was 144 to 146 °C.
On to `Nc1nc(-c2ccc3c(c2)CC(=O)N3)cs1`, for which the melting point was in the range of 249 to 251 °C.
`Cc1nnnn1-c1ccc(F)c(NC(=O)CCl)c1` came in with a melting point of 179 to 181 °C.
The value for `N#CCCn1cc(/C=C/C(=O)O)c2ccccc21` was 188 to 192 °C.
The value for `Cc1cc(N)ccc1NC(=O)CN1CCCC1=O` was 209 to 211 °C; that for `NC(=NO)c1ccc(Br)s1` was 124 to 126 °C; that for `O=C(O)c1cccnc1Nc1cccc(F)c1` was 202 to 204 °C.
The value for `Cc1ccc(C)c(S(=O)(=O)N2CCNCC2)c1` was 108 to 110 °C; that for `NC(=O)C(CC(=O)O)NC(=O)OCc1ccccc1` (configuration not stated) was 169 to 171 °C.
For the compound `O=C(O)Cn1c(-c2ccccc2Cl)nc2ccccc21`, the melting point fell in the range of 276 to 278 °C.
`CS(=O)(=O)CC1(CBr)CC1` showed a melting point of 50 to 52 °C.
The value for `ClCc1csc(COc2ccccc2)n1` was 49 to 51 °C.
For `O=C(O)CCOc1cccc(Cl)c1`, the melting point fell in the range of 85 to 87 °C.
